The target in assay [1] is Adenosine A2a (ADORA2A) receptor (Homo sapiens (Human), UniProt P29274). The assay is described as follows: ADORA2A Receptor Binding Assay. Conditions: radioligand binding, membrane stock. In a few lines: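 Test compounds incubated with A2a receptor membranes and a ³H-labelled radioligand for 2 hours at room temperature, then filtered through PEI-presoaked GF/C plates and washed. Filter-bound ³H counted by scintillation; % inhibition calculated from background-subtracted signal relative to high control.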
Chain of Adenosine A2a (ADORA2A) receptor (P29274 whole entry): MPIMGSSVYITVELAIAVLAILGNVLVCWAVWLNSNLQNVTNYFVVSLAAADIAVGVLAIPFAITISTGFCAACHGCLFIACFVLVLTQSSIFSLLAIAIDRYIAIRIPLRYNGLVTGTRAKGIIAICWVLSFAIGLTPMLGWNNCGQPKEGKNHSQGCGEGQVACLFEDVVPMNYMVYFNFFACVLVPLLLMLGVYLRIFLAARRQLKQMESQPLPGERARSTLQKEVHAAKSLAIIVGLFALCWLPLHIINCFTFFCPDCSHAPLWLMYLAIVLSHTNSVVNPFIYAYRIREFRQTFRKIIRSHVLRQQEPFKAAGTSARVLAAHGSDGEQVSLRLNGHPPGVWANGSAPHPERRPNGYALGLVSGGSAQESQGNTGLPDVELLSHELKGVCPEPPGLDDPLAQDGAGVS

In assay [2] the target is Adenosine A2B (ADORA2B) receptor (Homo sapiens (Human), UniProt P29275). The assay is described as follows: ADORA2B Receptor Binding Assay. Conditions: radioligand binding, membrane stock. An outline of the steps: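 Radioligand competition binding on human A2B receptor membranes, 1 h at room temperature, then filtration through BSA-presoaked GF/C filters and ³H counting by scintillation. Inhibition expressed as % of high control after background subtraction.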
Chain of Adenosine A2B (ADORA2B) receptor (P29275 whole entry): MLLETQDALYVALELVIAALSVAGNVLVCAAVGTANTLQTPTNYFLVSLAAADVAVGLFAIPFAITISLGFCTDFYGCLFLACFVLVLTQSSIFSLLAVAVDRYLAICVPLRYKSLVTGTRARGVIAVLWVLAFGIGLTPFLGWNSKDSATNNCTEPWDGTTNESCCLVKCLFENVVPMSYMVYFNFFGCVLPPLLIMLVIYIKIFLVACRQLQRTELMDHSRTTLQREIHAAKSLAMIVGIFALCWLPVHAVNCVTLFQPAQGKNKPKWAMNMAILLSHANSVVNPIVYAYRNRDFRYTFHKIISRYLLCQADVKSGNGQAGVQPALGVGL

A word on the IC50: it is the concentration needed to halve the response being measured. Take `CC(=O)c1cccc(-c2nc(N)c(Cl)c3nc(C)nn23)c1` [Compound 105, 1-[3-(7-amino-8-chloro-2-methyl-[1,2,4]triazolo[1,5-c]pyrimidin-5-yl)phenyl]ethanone]: the IC50 in assay [1] fell in the range of 0.01 to 0.1 µM; in assay [2], 0.1 to 1 µM.

Consider `Cc1nc2cc(N)nc(-c3ccc(S(C)(=O)=O)cc3)n2n1` [Compound 106, 2-methyl-5-(4-methylsulfonylphenyl)-[1,2,4]triazolo[1,5-c]pyrimidin-7-amine], for which the concentration for half-maximal inhibition (IC50) in assay [1] and in assay [2] was over 1 µM throughout.

As for `Cc1nc2cc(NC(=O)N3CC[C@H](O)C3)nc(-c3ccco3)n2n1` [Compound 107, (3S)-N-[5-(furan-2-yl)-2-methyl-[1,2,4]triazolo[1,5-c]pyrimidin-7-yl]-3-hydroxypyrrolidine-1-carboxamide], the IC50 in assay [1] and in assay [2] was over 1 µM throughout.

In the case of `CNC(=O)Nc1cc2nc(C)nn2c(-c2ccco2)n1` [Compound 108, 1-[5-(furan-2-yl)-2-methyl-[1,2,4]triazolo[1,5-c]pyrimidin-7-yl]-3-methylurea], the IC50 in assay [1] and in assay [2] was under 0.01 µM in each case.

Consider `CC(=O)Nc1cc2nc(C3COC3)nn2c(-c2ccc(C)o2)n1` [Compound 109, N-[5-(5-methylfuran-2-yl)-2-(oxetan-3-yl)-[1,2,4]triazolo[1,5-c]pyrimidin-7-yl]acetamide], for which the concentration for half-maximal inhibition (IC50) in assay [1] is under 0.01 µM; in assay [2], 0.01 to 0.1 µM.

Turning to `Cc1ccc(-c2nc(NC(=O)C3CC3)cc3nc(C4COC4)nn23)o1` [Compound 110, N-[5-(5-methylfuran-2-yl)-2-(oxetan-3-yl)-[1,2,4]triazolo[1,5-c]pyrimidin-7-yl]cyclopropanecarboxamide], the IC50 in assay [1] is under 0.01 µM; in assay [2], 0.01 to 0.1 µM.

For `COc1ccc(-c2nc(NC(=O)C3CC3)cc3nc(C)nn23)cc1` [Compound 111, N-[5-(4-methoxyphenyl)-2-methyl-[1,2,4]triazolo[1,5-c]pyrimidin-7-yl]cyclopropanecarboxamide], the 50% inhibitory concentration (IC50) in assay [1] and in assay [2] was 0.01 to 0.1 µM throughout.

As to `COc1ccc(-c2nc(NC(=O)OC(C)(C)C)cc3nc(C)nn23)cc1` [Compound 112, tert-butyl N-[5-(4-methoxyphenyl)-2-methyl-[1,2,4]triazolo[1,5-c]pyrimidin-7-yl]carbamate], the concentration for half-maximal inhibition (IC50) in assay [1] and in assay [2] was over 1 µM in each case.

Consider `COc1ccc(-c2nc(NC(C)=O)cc3nc(C)nn23)cc1` [Compound 113, N-[5-(4-methoxyphenyl)-2-methyl-[1,2,4]triazolo[1,5-c]pyrimidin-7-yl]acetamide], for which the IC50 in assay [1] and in assay [2] was 0.1 to 1 µM in each case.

As to `Cc1nc2cc(NC(=O)C3CC3)nc(-c3ccc(S(N)(=O)=O)cc3)n2n1` [Compound 114, N-[2-methyl-5-(4-sulfamoylphenyl)-[1,2,4]triazolo[1,5-c]pyrimidin-7-yl]cyclopropanecarboxamide], the IC50 in assay [1] and in assay [2] was over 1 µM throughout.

As to `COc1ccc(-c2nc(N)cc3nc(C)nn23)cc1` [Compound 115, 5-(4-methoxyphenyl)-2-methyl-[1,2,4]triazolo[1,5-c]pyrimidin-7-amine], the IC50 in assay [1] was 0.1 to 1 µM; in assay [2], over 1 µM.

In the case of `Cc1nc2cc(NC(=O)C3CC3)nc(-c3ccc(S(=O)(=O)N(C)C)cc3)n2n1` [Compound 116, N-[5-[4-(dimethylsulfamoyl)phenyl]-2-methyl-[1,2,4]triazolo[1,5-c]pyrimidin-7-yl]cyclopropanecarboxamide], the IC50 in assay [1] and in assay [2] was over 1 µM in each case.

On to `CC(=O)Nc1cc2nc(C)nn2c(-c2ccc(S(=O)(=O)N(C)C)cc2)n1` [Compound 117, N-[5-[4-(dimethylsulfamoyl)phenyl]-2-methyl-[1,2,4]triazolo[1,5-c]pyrimidin-7-yl]acetamide], for which the IC50 in assay [1] and in assay [2] was over 1 µM throughout.

For the origin of these results see patent US11718622B2, “Heterocyclic adenosine receptor antagonists” (Exelixis, Inc., priority 2020, dated 2023).
